Consider 1 compound from US9738677B2, “Amphotericin B derivative with reduced toxicity” (priority 2014, dated 2017).

Molecules are shown by their SMILES. Entries after “also recorded” stand apart in the source; their conditions may differ.

The assay in a line: ITC sterol binding, POPC LUVs containing 10% ergosterol. The method, then: Isothermal Titration calorimetry (ITC)
In an optimized isothermal titration calorimetry (ITC)-based assay, an aqueous solution of AmB was titrated with a suspension of large unilamellar vesicles (LUVs) comprised of only 1-palmitoyl-2-oleoyl-sn-glycero-3-phosphocholine (POPC), and the net exotherm was recorded. The titration was repeated using POPC LUVs containing 10% ergosterol. […] The titration was repeated using C2′epiAmB. […] The ITC assay was also conducted with cholesterol in place of ergosterol.
Experiments were performed using a NanoITC isothermal titration calorimeter (TA Instruments, Wilmington, Del.). Solutions of the compounds to be tested were prepared by diluting a 60.0 mM stock solution of the compound in DMSO to 600 μM with K buffer (5.0 mM HEPES/KHEPES, pH=7.4). The final DMSO concentration in the solution was 1% v/v. Large unilamellar vesicles comprised of only 1-palmitoyl-2-oleoyl-sn-glycero-3-phosphocholine (POPC LUVs) were prepared and phosphorus and ergosterol content was quantified as described below. The LUV solutions were diluted with buffer and DMSO to give a final phospholipid concentration of 12.0 mM in a 1% DMSO/K buffer solution. Immediately prior to use, all solutions were incubated at 37° C. for 30 minutes and degassed under vacuum at 37° C. for 10 minutes. The reference cell of the instrument (volume=0.190 mL) was filled with a solution of 1% v/v DMSO/K buffer.
Palmitoyl oleoyl phosphatidylcholine (POPC) was obtained as a 20 mg/mL solution in CHCl3 from Avanti Polar Lipids (Alabaster, Ala.) and was stored at −20° C. under an atmosphere of dry argon and used within 1 month. […]
Ergosterol content was determined spectrophotometrically. […] The solutions were then analyzed by UV/Vis spectroscopy and the concentration of ergosterol in solution was determined by the extinction coefficient of 10400 L mol^−1 cm^−1 at the UVmax of 282 nm and was compared to the concentration of phosphorus to determine the percent sterol content. The extinction coefficient was determined independently in the above ternary solvent system. […]

Under “10% ergosterol LUVs, 600 μM compound”, `C[C@@H]1[C@H](O)[C@@H](C)/C=C/C=C/C=C/C=C/C=C/C=C/C=C/[C@H](O[C@@H]2O[C@H](C)[C@@H](O)[C@H](N)[C@H]2O)CC2O[C@](O)(C[C@@H](O)C[C@@H](O)[C@H](O)CC[C@@H](O)C[C@@H](O)CC(=O)O[C@H]1C)C[C@H](O)[C@H]2C(=O)O` [C2′epiAmB] registered a Total exotherm of -15.24 ± 1.66 µcal. Moreover, the “Binding to ergosterol (in words)” value (net exotherm vs sterol-free LUVs) is recorded as “binds to ergosterol; also recorded: retained capacity for the epimeric derivative to bind ergosterol”.
